Data from PMC7596181 (Frontiers in Immunology, 2020).

Key:
[1] = molecular target: T1, human TLR4 (Homo sapiens, UniProt O00206+Q9Y6Y9); assay: Inhibition curves (IC50 format): antagonist diluted in a fixed concentration of reference agonist, human TLR4 HEK-Blue SEAP; type: cell-based; parameters: host or cells: HEK-Blue (HEK293-derived) reporter cells; details: for inhibition of 3D-6A-PHAD stimulation: fixed 3D-6A-PHAD 300 nM; for IC50: 95% CI given; for inhibition of PHAD stimulation: fixed PHAD 1 μM, 22 h
Procedure: (§1) SEAP assays were performed to evaluate the extent to which TLR4 signaling was activated in HEK-Blue reporter cells expressing mouse or human receptors (CD14, MD2 and TLR4). Reporter cells were harvested when 70–80% confluent and plated in 96-well, flat-bottom microtiter plates either 1 h, one day or two days (5 × 10^4, 4 × 10^4 or 2 × 10^4 cells/well, respectively) before addition of TLR4 agonists for 18–24 h. Culture supernatants were transferred to U-bottom microtiter plates, centrifuged and transferred again to microtiter plates to ensure reporter cells were not present. The culture supernatants were added to QUANTI-BLUE substrate following instructions provided by the manufacturer (InvivoGen cat. nos. rep-qbl or rep-qbs) and incubated at 37°C in a tissue culture incubator. At successive intervals beginning 10 min after mixing the supernatants and substrate, the plates were placed in an Emax plate reader (Molecular Devices LLC) and optical density was measured at visible light wavelength […] (OD650). The shortest incubations at which dose response curve fits produced maximal R^2 ‘goodness of fit’ values, as determined by GraphPad Prism software, were used for analysis.
Pharmacological profiles of the TLR4 reagents were generated by performing dose response curves in one of four formats. 1) Agonist potency and efficacy (EC50 and height of dose plateau, respectively) were measured by diluting TLR4 reagents successively in complete culture medium [DMEM or RPMI supplemented with fetal bovine serum (FBS) or RPMI supplemented with human serum, depending on cell-type]. Half-log step dilutions were performed in 96-well, U-bottom microtiter plates using a multichannel pipette to transfer and mix the suspensions, with fresh tips used for each dilution step. One-tenth (20 μl) volumes from wells of the dilution plate were then transferred to wells containing cells that had been plated in nine-tenth volumes (180 μl) of culture medium. 2) Mixed agonist–antagonist potency and efficacy were measured by mixing a TLR4 agonist with a candidate antagonist at a fixed ratio and then performing half-log step dilutions before treating HEK reporter cells. Analysis of values obtained from SEAP assays of culture supernatants was then performed as described for preparations containing agonist alone, above. 3) Competitive vs allosteric or non-competitive antagonist type was evaluated by diluting a reference agonist within a fixed concentration of a candidate inhibitor in half-log steps, treating HEK reporter cells, performing SEAP assays and then analyzing the data as described for agonist assays, above. Competitive antagonists are characterized by values that reach the same dose plateau as for a reference, full agonist, while shifting potency to higher EC50 values. […] 4) Inhibitory potency (IC50) was measured by diluting antagonists within a fixed concentration of a reference agonist, treating HEK reporter cells and performing SEAP assays as described.

[2] = molecular target: T1, human TLR4; assay: SEAP assay, agonist dose response in human TLR4 HEK-Blue reporter cells; type: cell-based; parameters: host or cells: HEK-Blue (HEK293-derived) reporter cells; details: human TLR4 HEK-Blue reporter cells
Procedure: Human and mouse HEK-Blue reporter cells express human or mouse CD14, MD2, and TLR4 and secreted embryonic alkaline phosphatase (SEAP) under control of a promoter with binding sites for NFκB and AP-1 transcription factors (InvivoGen cat. nos. hkb-htlr4 and hkb-mtlr4). Cells were cultured as directed by the supplier, with the exception that Glutamax (ThermoFisher cat. no. 10569010) was used in place of L-glutamine, and TrypLE Express (ThermoFisher cat. no. 12605010) was used to release adherent cells for each passage. BALB/c mouse RAW264.7 and human THP-1 cells (ATCC® cat. nos. TIB-71 and TIB-202) were cultured in DMEM (4.5 g/L D-Glucose with 2 mM L-glutamine, 1 mM sodium pyruvate, 100 U/ml penicillin and 100 μg/ml streptomycin) supplemented with 10% heat-inactivated FBS. THP-1 cells were exposed to phorbol-12-myristate-13-acetate (PMA, InvivoGen cat no. tlrl-pma), 5 ng/ml, for 48 h prior to treatment with TLR4 agonists. Bone marrow-derived dendritic cells (BMDCs) were generated using C57BL/6 mouse femurs following the exact method published by Lutz et al. ([29]) except that 5 rather than 20 ng/ml recombinant GM-CSF was used to differentiate the DC. Human peripheral blood […] (PBMCs) were prepared from venous blood of healthy volunteers that had been collected using sodium citrate as anti-coagulant, 20 ml of which was mixed with 15 ml calcium- and magnesium-free Hank’s Balanced Saline Solution (HBSS) and then laid over 6 ml Histopaque®-1077 (1.077 g/ml, Sigma-Aldrich cat no. 10771) for density gradient centrifugation. The buffy coat layer was collected by pipette, washed once in HBSS, once in serum-free RPMI-1640, and then the PBMCs were resuspended in RPMI-1640 supplemented with 100 U/ml penicillin, 100 µg/ml streptomycin, 1 mM Na-Pyruvate, 2 mM L-glutamine, 50 μM βME and 10% heat-inactivated, male AB human serum for culture.
as §1
Pharmacological profiles of the TLR4 reagents were generated by performing dose response curves in one of four formats. 1) Agonist potency and efficacy (EC50 and height of dose plateau, respectively) were measured by diluting TLR4 reagents successively in complete culture medium [DMEM or RPMI supplemented with fetal bovine serum (FBS) or RPMI supplemented with human serum, depending on cell-type]. Half-log step dilutions were performed in 96-well, U-bottom microtiter plates using a multichannel pipette to transfer and mix the suspensions, with fresh tips used for each dilution step. One-tenth (20 μl) volumes from wells of the dilution plate were then transferred to wells containing cells that had been plated in nine-tenth volumes (180 μl) of culture medium. […]

T1 sequence (O00206 24-839): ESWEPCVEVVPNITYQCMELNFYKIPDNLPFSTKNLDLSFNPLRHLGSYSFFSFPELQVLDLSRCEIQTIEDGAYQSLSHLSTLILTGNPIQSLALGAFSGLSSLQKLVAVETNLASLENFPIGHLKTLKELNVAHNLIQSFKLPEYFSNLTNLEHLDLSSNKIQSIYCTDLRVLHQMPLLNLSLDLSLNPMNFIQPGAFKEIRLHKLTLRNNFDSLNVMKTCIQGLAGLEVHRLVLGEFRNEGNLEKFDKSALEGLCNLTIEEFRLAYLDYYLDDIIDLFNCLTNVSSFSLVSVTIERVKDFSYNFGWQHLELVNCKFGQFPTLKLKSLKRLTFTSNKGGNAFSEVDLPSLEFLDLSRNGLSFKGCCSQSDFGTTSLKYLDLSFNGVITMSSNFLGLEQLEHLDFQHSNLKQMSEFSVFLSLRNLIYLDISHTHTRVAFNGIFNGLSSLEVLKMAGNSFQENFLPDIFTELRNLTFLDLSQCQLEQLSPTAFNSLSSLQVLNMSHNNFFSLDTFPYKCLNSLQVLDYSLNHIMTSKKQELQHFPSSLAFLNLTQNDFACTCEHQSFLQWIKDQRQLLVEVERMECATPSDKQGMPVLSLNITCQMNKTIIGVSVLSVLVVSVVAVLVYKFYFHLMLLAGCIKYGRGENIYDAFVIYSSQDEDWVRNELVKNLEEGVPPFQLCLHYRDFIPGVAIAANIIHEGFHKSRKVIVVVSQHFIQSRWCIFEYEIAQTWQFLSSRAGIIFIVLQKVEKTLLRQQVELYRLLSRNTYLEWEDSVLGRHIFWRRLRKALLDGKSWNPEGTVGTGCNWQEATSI
T1 sequence (Q9Y6Y9 17-160 limits assumed): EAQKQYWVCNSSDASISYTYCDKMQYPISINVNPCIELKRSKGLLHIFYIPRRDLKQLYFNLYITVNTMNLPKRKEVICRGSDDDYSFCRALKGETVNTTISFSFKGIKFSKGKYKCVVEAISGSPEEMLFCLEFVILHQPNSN

Row | SMILES | inhibition of 3D-6A-PHAD stimulation [1] | IC50 ([1]; fixed PHAD 30 nM) [nM] | inhibition of PHAD stimulation [1] | agonist profile [2] | extent of inhibition at high dose ([1]; fixed PHAD 30 nM, peak dose 31.6 μM)
1 | CCCCCCCCCCCC(=O)OC(CCCCCCCCCCC)CC(=O)NC1C(OCC2OC(O)C(NC(=O)CC(O)CCCCCCCCCCC)C(O)C2O)OC(CO)C(OP(=O)(O)O)C1O (centres unmarked) [ML3] | functioned as inhibitors | 1320 | showed inhibitory potential | largely inactive | 
2 | CCCCCCCCCCCC(=O)OC(CCCCCCCCCCC)CC(=O)NC1C(OCC2OC(O)C(NC(=O)CC(O)CCCCCCCCCCC)C(O)C2O)OC(CO)C(OP(=O)(O)O)C1OC(=O)CC(O)CCCCCCCCCCC (centres unmarked) [ML4A] | functioned as inhibitors | 400 | showed inhibitory potential | all but inactive | approach a bottom plateau rather than achieving full inhibition
3 | CCCCCCCCCCCCCCCC(=O)OC(CCCCCCCCCCC)CC(=O)NC1C(O)OC(COC2OC(CO)C(OP(=O)(O)O)C(O)C2NC(=O)CC(CCCCCCCCCCC)OC(=O)CCCCCCCCCCC)C(O)C1O (centres unmarked) [ML4B] |  |  | only ML3 and ML4A showed inhibitory potential | largely inactive | 
